From US6737383B1, “Herbicidal oxadiazolidines” (priority 1999, dated 2004)

Columns and labels:
purple nutsedge = assay: Test B pre/postemergence purple nutsedge; type: in vivo, Cyperus rotundus
Method in brief: (§1)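 Herbicidal effect was estimated by eye on a ten-point control scale after plants spent twelve to sixteen days in a greenhouse following soil or foliar treatment. Foliar sprays targeted plants at one to four leaves; all doses were formulated in a non-phytotoxic solvent with surfactant.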

wild oat = assay: Test B pre/postemergence wild oat; type: in vivo, Avena fatua
Method in brief: as §1

wheat = assay: Test B pre/postemergence wheat; type: in vivo, Triticum aestivum
Method in brief: as §1

bamyardgrass = assay: Test B flood test barnyardgrass; type: in vivo, Echinochloa crus-galli; settings: for Plant response rating, Barnyardgrass: scale 0 to 10, 0 is no effect, 10 is complete control; for Barnyardgrass plant response rating: scale of 0 to 10 where 0 is no effect and 10 is complete control
Method in brief: (§2)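 Plants were grown to the 2-leaf stage before treatment with test chemical, then held in a greenhouse for twelve to sixteen days. Injury was visually rated against untreated controls on a 0–10 scale, where 0 is no effect and 10 is complete control.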

pigweed = assay: Test B pre/postemergence pigweed; type: in vivo, Amaranthus retroflexus
Method in brief: as §1

crabgrass = assay: Test B pre/postemergence crabgrass; type: in vivo, Digitaria sanguinalis
Method in brief: as §1

cocklebur = assay: Test B pre/postemergence cocklebur; type: in vivo, Xanthium strumarium
Method in brief: as §1

blackgrass = assay: Test B pre/postemergence blackgrass; type: in vivo, Alopecurus myosuroides
Method in brief: as §1

velvetleaf = assay: Test B pre/postemergence velvetleaf; type: in vivo, Abutilon theophrasti
Method in brief: as §1

surinam grass = assay: Test B pre/postemergence surinam grass; type: in vivo, Brachiaria decumbens
Method in brief: as §1

giant foxtail = assay: Test B pre/postemergence giant foxtail; type: in vivo, Setaria faberii
Method in brief: as §1

morningglory = assay: Test B pre/postemergence morningglory; type: in vivo, Ipomoea hederacea
Method in brief: as §1

rice = assay: Test B flood test rice; type: in vivo, Oryza sativa; settings: for Rice plant response rating: scale of 0 to 10 where 0 is no effect and 10 is complete control
Method in brief: as §2

rape = assay: Test B pre/postemergence rape; type: in vivo, Brassica napus
Method in brief: as §1

smallflower flatsedge = assay: Test B flood test smallflower flatsedge; type: in vivo, Cyperus difformis; settings: for S. Flatsedge plant response rating: scale of 0 to 10 where 0 is no effect and 10 is complete control
Method in brief: as §2

sugar beet = assay: Test B pre/postemergence sugar beet; type: in vivo, Beta vulgaris
Method in brief: as §1

[1] = Postemergence, Rate 250 g/ha, scale 0 to 10, 0 is no effect, 10 is complete control
[2] = Postemergence, Rate 500 g/ha, scale of 0 to 10 where 0 is no effect and 10 is complete control
[3] = Preemergence, Rate 62 g/ha, scale 0 to 10 (0 no effect, 10 complete control)
[4] = Preemergence, Rate 125 g/ha, scale of 0 to 10 where 0 is no effect and 10 is complete control
[5] = Preemergence, Rate 250 g/ha, scale 0 to 10, 0 is no effect, 10 is complete control
[6] = Preemergence, Rate 500 g/ha, scale 0 to 10, 0 is no effect, 10 is complete control
[7] = Rate 62 g/ha, Postemergence, scale of 0 to 10 where 0 is no effect and 10 is complete control
[8] = Postemergence section (flood test species), Rate 500 g/ha
[9] = Rate 62 g/ha, Postemergence (flood test species)
[10] = Postemergence, Rate 125 g/ha, scale 0 to 10, 0 is no effect, 10 is complete control
[11] = Preemergence, Rate 250 g/ha, scale of 0 to 10 where 0 is no effect and 10 is complete control
[12] = flood test species, listed under Postemergence, Rate 250 g/ha, scale 0 to 10, 0 is no effect, 10 is complete control

In the case of CCOC(=O)C=C(Cn1c(=O)on(C(=O)N(c2ccc(F)cc2)C(C)C)c1=O)OCC [Compound 396], the “Plant response rating, Nutsedge” value (purple nutsedge; [1]) is reported as 0, the “Nutsedge plant response rating” value (purple nutsedge; [2]) is reported as 0 and the “Plant response rating, Nutsedge” value (purple nutsedge; [3]) is reported as 0. For the same molecule, the “Plant response rating, Nutsedge” value (purple nutsedge; [4]) was 0, the “Nutsedge plant response rating” value (purple nutsedge; [5]) was 0 and the “Nutsedge plant response rating” value (purple nutsedge; [6]) was 0. The “Nutsedge plant response rating” value (purple nutsedge; [7]) was 0, the “Wild oats plant response rating” value (wild oat; [2]) was 0 and the “Plant response rating, Wild oats” value (wild oat; [3]) was 0. The “Plant response rating, Wild oats” value (wild oat; [4]) was 0, the “Wild oats plant response rating” value (wild oat; [5]) was 2 and the “Wild oats plant response rating” value (wild oat; [6]) was 4. For the same molecule, the “Wild oats plant response rating” value (wild oat; [7]) was 0, the “Wheat plant response rating” value (wheat; [2]) was 0 and the “Plant response rating, Wheat” value (wheat; [3]) was 0. For the same molecule, the “Plant response rating, Wheat” value (wheat; [4]) was 0, the “Wheat plant response rating” value (wheat; [5]) was 0 and the “Wheat plant response rating” value (wheat; [6]) was 0. For the same molecule, the “Wheat plant response rating” value (wheat; [7]) was 0, the “Plant response rating, Barnyardgrass” value (bamyardgrass; Postemergence (flood test), Rate 125 g/ha) was 0 and the “Barnyardgrass plant response rating” value (bamyardgrass; [8]) was 0. The “Barnyardgrass plant response rating” value (bamyardgrass; [9]) was 0, the “Plant response rating, Barnyardgrass” value (bamyardgrass; flood test species, listed under Postemergence, Rate 250 g/ha) was 0 and the “Plant response rating, Redroot pigweed” value (pigweed; [1]) was 0. For the same molecule, the “Redroot pigweed plant response rating” value (pigweed; [2]) was 0, the “Plant response rating, Redroot pigweed” value (pigweed; [3]) was 0 and the “Plant response rating, Redroot pigweed” value (pigweed; [4]) was 0. For the same molecule, the “Redroot pigweed plant response rating” value (pigweed; [5]) was 4, the “Redroot pigweed plant response rating” value (pigweed; [6]) was 8 and the “Redroot pigweed plant response rating” value (pigweed; [7]) was 0. For the same molecule, the “Plant response rating, Crabgrass” value (crabgrass; [10]) was 0, the “Plant response rating, Crabgrass” value (crabgrass; [1]) was 2 and the “Crabgrass plant response rating” value (crabgrass; [2]) was 2. The “Plant response rating, Crabgrass” value (crabgrass; [3]) was 0, the “Plant response rating, Crabgrass” value (crabgrass; [4]) was 7 and the “Crabgrass plant response rating” value (crabgrass; [5]) was 10. For the same molecule, the “Crabgrass plant response rating” value (crabgrass; [6]) was 10, the “Crabgrass plant response rating” value (crabgrass; [7]) was 0 and the “Plant response rating, Cocklebur” value (cocklebur; [10]) was 0. The “Plant response rating, Cocklebur” value (cocklebur; [1]) was 0, the “Cocklebur plant response rating” value (cocklebur; [2]) was 0 and the “Plant response rating, Cocklebur” value (cocklebur; [3]) was 0. The “Plant response rating, Cocklebur” value (cocklebur; [4]) was 0, the “Cocklebur plant response rating” value (cocklebur; [5]) was 0 and the “Cocklebur plant response rating” value (cocklebur; [6]) was 0. The “Cocklebur plant response rating” value (cocklebur; [7]) was 0, the “Plant response rating, Blackgrass” value (blackgrass; [10]) was 2 and the “Plant response rating, Blackgrass” value (blackgrass; [1]) was 3. For the same molecule, the “Blackgrass plant response rating” value (blackgrass; [2]) was 6, the “Plant response rating, Blackgrass” value (blackgrass; [3]) was 0 and the “Plant response rating, Blackgrass” value (blackgrass; [4]) was 0. The “Blackgrass plant response rating” value (blackgrass; [11]) was 3, the “Blackgrass plant response rating” value (blackgrass; [6]) was 5 and the “Blackgrass plant response rating” value (blackgrass; [7]) was 0. For the same molecule, the “Plant response rating, Velvetleaf” value (velvetleaf; [1]) was 0, the “Velvetleaf plant response rating” value (velvetleaf; [2]) was 0 and the “Plant response rating, Velvetleaf” value (velvetleaf; [3]) was 0. For the same molecule, the “Plant response rating, Velvetleaf” value (velvetleaf; [4]) was 0, the “Velvetleaf plant response rating” value (velvetleaf; [5]) was 0 and the “Velvetleaf plant response rating” value (velvetleaf; [6]) was 0. For the same molecule, the “Velvetleaf plant response rating” value (velvetleaf; [7]) was 0, the “Plant response rating, B. signalgrass” value (surinam grass; [10]) was 0 and the “Plant response rating, B. signalgrass” value (surinam grass; [1]) was 0. The “B. signalgrass plant response rating” value (surinam grass; [2]) was 0, the “Plant response rating, B. signalgrass” value (surinam grass; [3]) was 0 and the “Plant response rating, B. signalgrass” value (surinam grass; [4]) was 0. For the same molecule, the “B. signalgrass plant response rating” value (surinam grass; [11]) was 3, the “B. signalgrass plant response rating” value (surinam grass; Preemergence, Rate 500 g/ha, scale of 0 to 10 where 0 is no effect and 10 is complete control) was 5 and the “B. signalgrass plant response rating” value (surinam grass; [7]) was 0. The “Plant response rating, Giant foxtail” value (giant foxtail; [10]) was 0, the “Plant response rating, Giant foxtail” value (giant foxtail; [1]) was 2 and the “Giant foxtail plant response rating” value (giant foxtail; [2]) was 2. The “Plant response rating, Giant foxtail” value (giant foxtail; [3]) was 2, the “Plant response rating, Giant foxtail” value (giant foxtail; [4]) was 10 and the “Giant foxtail plant response rating” value (giant foxtail; [5]) was 10. The “Giant foxtail plant response rating” value (giant foxtail; [6]) was 10, the “Giant foxtail plant response rating” value (giant foxtail; [7]) was 0 and the “Plant response rating, Morningglory” value (morningglory; [1]) was 8. For the same molecule, the “Morningglory plant response rating” value (morningglory; [2]) was 8, the “Plant response rating, Morningglory” value (morningglory; [3]) was 0 and the “Plant response rating, Morningglory” value (morningglory; [4]) was 0. The “Morningglory plant response rating” value (morningglory; [5]) was 0, the “Morningglory plant response rating” value (morningglory; [6]) was 0 and the “Morningglory plant response rating” value (morningglory; [7]) was 0. The “Rice plant response rating” value (rice; [8]) was 0, the “Rice plant response rating” value (rice; [9]) was 0 and the “Plant response rating, Rice” value (rice; [12]) was 0. The “Plant response rating, Rape” value (rape; [1]) was 0, the “Rape plant response rating” value (rape; [2]) was 6 and the “Plant response rating, Rape” value (rape; [3]) was 0. For the same molecule, the “Plant response rating, Rape” value (rape; [4]) was 0, the “Rape plant response rating” value (rape; [5]) was 0 and the “Rape plant response rating” value (rape; [6]) was 0. The “Rape plant response rating” value (rape; [7]) was 0, the “S. Flatsedge plant response rating” value (smallflower flatsedge; [8]) was 0 and the “S. Flatsedge plant response rating” value (smallflower flatsedge; [9]) was 0. The “Plant response rating, S. Flatsedge” value (smallflower flatsedge; [12]) was 0, the “Plant response rating, Sugarbeets” value (sugar beet; [1]) was 0 and the “Sugarbeets plant response rating” value (sugar beet; [2]) was 3. The “Plant response rating, Sugarbeets” value (sugar beet; [3]) was 0, the “Plant response rating, Sugarbeets” value (sugar beet; [4]) was 0 and the “Sugarbeets plant response rating” value (sugar beet; [5]) was 0. The “Sugarbeets plant response rating” value (sugar beet; [6]) was 2 and the “Sugarbeets plant response rating” value (sugar beet; [7]) was 0.
